From patent US12509431B2, “1,4-dihydroquinazolinone compounds and uses thereof” (Edgewise Therapeutics, Inc., priority 2022, dated 2025)

Experiments:
Format in all cases: biochemical
Conditions in all cases: Table 8
[1] = target: T1, Porcine Ventricle myofibrils (left ventricle of Yucatan minipigs) (Sus scrofa, UniProt P79293); test: Myofibril ATPase assay (PK/LDH NADH-coupled), ventricle myofibrils
T1 construct: Myofibrils from porcine cardiac muscle was isolated from the left ventricle of Yucatan minipigs; tissue Exemplar Genetics; host or cells: left ventricle of Yucatan minipigs
T1 sequence (P79293 whole entry): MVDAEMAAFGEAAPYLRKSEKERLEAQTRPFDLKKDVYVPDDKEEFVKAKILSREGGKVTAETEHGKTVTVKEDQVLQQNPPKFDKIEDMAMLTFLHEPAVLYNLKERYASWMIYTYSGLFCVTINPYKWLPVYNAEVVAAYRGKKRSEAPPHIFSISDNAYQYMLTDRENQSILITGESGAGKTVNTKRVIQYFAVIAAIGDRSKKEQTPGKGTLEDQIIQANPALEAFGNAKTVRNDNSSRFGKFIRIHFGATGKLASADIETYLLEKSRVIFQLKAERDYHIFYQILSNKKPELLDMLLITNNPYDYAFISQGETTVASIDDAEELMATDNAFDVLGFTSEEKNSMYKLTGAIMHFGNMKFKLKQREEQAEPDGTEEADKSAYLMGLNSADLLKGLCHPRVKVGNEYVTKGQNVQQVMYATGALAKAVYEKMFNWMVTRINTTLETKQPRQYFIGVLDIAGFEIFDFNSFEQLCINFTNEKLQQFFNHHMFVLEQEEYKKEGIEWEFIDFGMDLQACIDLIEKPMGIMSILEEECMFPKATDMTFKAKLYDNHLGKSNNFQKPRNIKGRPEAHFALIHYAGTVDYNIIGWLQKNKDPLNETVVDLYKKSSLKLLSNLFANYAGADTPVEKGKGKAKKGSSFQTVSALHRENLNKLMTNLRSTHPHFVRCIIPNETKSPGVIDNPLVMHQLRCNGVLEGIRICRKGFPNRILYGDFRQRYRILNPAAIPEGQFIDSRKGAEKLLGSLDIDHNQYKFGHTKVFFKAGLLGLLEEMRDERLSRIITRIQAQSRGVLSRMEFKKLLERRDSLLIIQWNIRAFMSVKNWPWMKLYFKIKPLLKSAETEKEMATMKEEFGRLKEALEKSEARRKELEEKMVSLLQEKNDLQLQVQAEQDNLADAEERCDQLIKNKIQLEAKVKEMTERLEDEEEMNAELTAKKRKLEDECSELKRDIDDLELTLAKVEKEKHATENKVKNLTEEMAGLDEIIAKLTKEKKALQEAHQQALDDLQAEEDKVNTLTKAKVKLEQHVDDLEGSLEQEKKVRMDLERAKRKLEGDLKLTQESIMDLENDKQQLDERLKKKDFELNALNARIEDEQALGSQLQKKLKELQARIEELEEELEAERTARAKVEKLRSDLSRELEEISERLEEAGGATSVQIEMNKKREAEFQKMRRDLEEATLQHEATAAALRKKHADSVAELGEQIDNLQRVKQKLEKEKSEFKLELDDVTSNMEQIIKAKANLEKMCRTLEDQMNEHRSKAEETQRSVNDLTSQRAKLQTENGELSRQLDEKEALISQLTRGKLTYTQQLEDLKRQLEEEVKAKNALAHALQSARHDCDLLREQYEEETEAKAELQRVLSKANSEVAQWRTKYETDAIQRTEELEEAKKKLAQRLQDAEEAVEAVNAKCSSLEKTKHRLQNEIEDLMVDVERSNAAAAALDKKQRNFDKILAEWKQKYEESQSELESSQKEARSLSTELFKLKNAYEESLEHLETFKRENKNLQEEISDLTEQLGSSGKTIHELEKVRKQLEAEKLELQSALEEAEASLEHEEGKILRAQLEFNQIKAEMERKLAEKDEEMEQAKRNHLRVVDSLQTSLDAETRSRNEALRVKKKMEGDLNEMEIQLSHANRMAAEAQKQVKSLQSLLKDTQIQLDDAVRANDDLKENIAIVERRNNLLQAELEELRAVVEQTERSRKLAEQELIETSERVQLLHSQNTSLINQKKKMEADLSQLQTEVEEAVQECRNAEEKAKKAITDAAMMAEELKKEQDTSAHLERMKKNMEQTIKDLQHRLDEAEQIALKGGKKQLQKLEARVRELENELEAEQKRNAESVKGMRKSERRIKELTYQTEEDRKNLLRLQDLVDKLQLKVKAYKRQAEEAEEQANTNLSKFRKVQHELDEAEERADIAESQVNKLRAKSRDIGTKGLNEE
Description: (§1) Myofibril ATPase assays are known in the art to be useful in evaluating small molecules for the treatment of HCM and other cardiac indications. Myosin ATPase activity is assessed by using a coupled reaction system, in which ADP generated by the myosin ATPase function is coupled to the disappearance of NADH through the pyruvate kinase/lactate dehydrogenase (PK-LDH) system. ATPase activity produces ADP, which is used as a substrate for PK to produce pyruvate and regenerate ATP. The pyruvate is then used as a substrate by LDH to oxidize NADH to NAD+. The rate of the reaction is monitored through the time-dependent disappearance of NADH using absorbance at 340 nm, which, when the couple system is in stoichiometric excess, is directly correlated to the ATPase activity of the myosin. Inhibition of ATPase activity by the assayed compounds is indicated by a reduced rate of NADH loss, relative to vehicle-treated controls, over the experimental time window. Rabbit Skeletal and Porcine Ventricle are the primary sources of myofibril material.
(§2) Materials: The following stock solutions and reagents were used in the Myofibril ATPase Assay:
(§3) Stock Solutions of pCa buffer. Combine PIPES, CaCl2), and EGTA solutions with water. Adjust pH to 7.0 and bring final volume to 100 mL.
(§4) Buffer A & Buffer B. Prepare buffers A and B according to the table below.
(§5) Myofibril ATPase Assay Procedure: BSA, ATP, NADH, PEP, and DTT solutions were thawed at room temperature, then transferred to ice. Pellet-frozen myofibrils were transferred with approximately twice the required volume into a sufficiently large tube and capped. Myofibrils were thawed by rolling in a water bath for approximately 15 min at room temperature and cooled on ice. Buffers A and B were prepared by adjusting volumes as necessary for required number of wells and stored on ice. 0.5 μL of the compounds to be assayed were added into wells. 25 μL of Buffer A was dispensed into the wells, followed by 25 μL of Buffer B. The wells were measured for absorbance at 340 nm, using a kinetic protocol in which the wells are read every 1.5-2 min for 75 min. Assay data analysis was performed using a python script that filtered the raw data to retain those points falling between a starting and ending time and between a maximum and minimum absorbance, then used the filtered time-domain 340 nm absorbance data in each well to calculate a slope via linear regression analysis in units of mAU/min. Compound slopes were normalized between 100% and 0% activity, where 100% represented the slope of wells containing only compound vehicle, and fit to a 4-parameter logistic model. In addition to the fit parameters, the EC25% is calculated, relative to the 100% normalized value. In the case of inhibitors, EC50% is also calculated, if available. Fit parameters, calculated effective concentrations, filtered raw data, and calculated slopes were exported, in addition to compound-specific graphs of normalized ATPase activity versus concentration in μM.
Cardiac Myofibril Isolation:
Myofibrils from porcine cardiac muscle was isolated from the left ventricle of Yucatan minipigs. Myofibrils were prepared using a method based upon those described in Herrmann et al. (1993) and summarized here. Minced tissue was homogenized for 50 sec with a Polytron homogenizer into 10 volumes (relative to weight in grams) of Isolation Buffer A (75 mM KCl, 10 mM Imidazole, 2 mM MgCl2, 2 mM EGTA, 1 mM NaN3, 1% v/v Triton X-100) supplemented with 4 mM Phosphocreatine, 1 mM ATP, 50 mM BDM, 1 mM DTT, 1 mM Benzamide HCl, 0.1 mM PMSF, 10 μM leupeptin, 5 μM pepstatin, and 10 mM EDTA. The myofibrils were recovered by centrifugation (Beckman Allegra 6R, 1200 g, 15 min) and resuspended in 10 volumes Isolation Buffer B (Buffer A above without supplemental reagents). The myofibrils were further homogenized described above and recovered by centrifugation for 7 mins. Cellular membranes and debris were removed by 3 washes in Isolation Buffer B, centrifuging each as before. […]

Porcine Atria myofibrils = test: Myofibril ATPase assay (PK/LDH NADH-coupled), atria myofibrils
Description: as §5

[2] = system: Rabbit Skeletal myofibrils (rabbit psoas muscle); test: Myofibril ATPase assay (PK/LDH NADH-coupled), skeletal myofibrils
Description: as §1, §2, §3, §4, §5
Skeletal Myofibril Isolation:
Myofibrils from various animals and tissue types were acquired from a variety of sources: rabbit psoas muscle was purchased from Pel-Freez Biologicals (Rogers, AR) and porcine cardiac muscle was purchased from Exemplar Genetics. All myofibrils were prepared using a method based upon those described in Herrmann et al. (1993) and summarized here. Minced tissue was homogenized for 50 sec with a Polytron homogenizer into 10 volumes (relative to weight in grams) of Isolation Buffer A (50 mM Tris, pH 8.0, 0.1 M potassium acetate, 5 mM KCl, 2 mM DTT, 5 mM EDTA, 0.5% v/v Triton X-100) supplemented with 0.1 mM PMSF, 10 μM leupeptin, 5 μM pepstatin, and 0.5 mM sodium azide. The myofibrils were recovered by centrifugation (Beckman Allegra 6R, 1200 g, 10 min) and resuspended in 10 volumes Isolation Buffer B (Buffer A above without protease inhibitors or sodium azide). The myofibrils were further homogenized as before and recovered by centrifugation. […]

Compound	Porcine Ventricle IC25 [1] [nM]	Porcine Atria IC25 (Porcine Atria myofibrils) [nM]	Rabbit Psoas IC25 [2] [nM]
Cc1ccc2c(c1F)CN(CC(=O)N[C@@H](C)c1ccc(C#N)cc1F)C(=O)N2 [Compound B31, N-[(1S)-1-(4-cyano-2-fluorophenyl)ethyl]-2-(5-fluoro-6-methyl-2-oxo-1,4-dihydroquinazolin-3-yl)acetamide]	42.1	20	10
C[C@@H](NC(=O)CN1Cc2c(F)cc(Cl)cc2NC1=O)c1ccc(C#N)cc1F [Compound B32]	548	280	1003
C[C@H](NC(=O)CN1Cc2c(F)cc(Cl)cc2NC1=O)c1ccc(C#N)cc1F [Compound B33, 2-(7-Chloro-5-fluoro-2-oxo-1,4-dihydroquinazolin-3-yl)-N-[(1S)-1-(4-cyano-2-fluorophenyl)ethyl]acetamide]	66.7	20	9.3
Cc1cc([C@@H](C)NC(=O)CN2Cc3c(ccc(F)c3F)NC2=O)ncc1C#N [Compound B34]	3618	160	100000
C[C@@H](NC(=O)CN1Cc2c(ccc(F)c2F)NC1=O)c1ncc(F)cc1Cl [Compound B36]	14.8	20	10.5
C[C@H](NC(=O)CN1Cc2c(ccc(F)c2F)NC1=O)c1ncc(F)cc1Cl [Compound B37]	490.1	280	384.4
Cc1cc(F)cnc1[C@@H](C)NC(=O)CN1Cc2c(ccc(F)c2F)NC1=O [Compound B38]	3820	980	10640
Cc1cc(F)cnc1[C@H](C)NC(=O)CN1Cc2c(ccc(F)c2F)NC1=O [Compound B39]	48.3	20	20.3
C[C@@H](NC(=O)CN1Cc2cc(F)cc(Cl)c2NC1=O)c1ccc(C#N)cc1F [Compound B40]	17720	100000	100000
C[C@H](NC(=O)CN1Cc2cc(F)cc(Cl)c2NC1=O)c1ccc(C#N)cc1F [Compound B41]	1384	1740	85.7
C[C@@H](NC(=O)CN1Cc2c(F)cc(F)cc2NC1=O)c1ccc(C#N)cc1F [Compound B42]	3177	590	745.5
C[C@H](NC(=O)CN1Cc2c(F)cc(F)cc2NC1=O)c1ccc(C#N)cc1F [Compound B43]	47.3	40	15.8
C[C@@H](NC(=O)CN1Cc2cc(F)c(F)cc2NC1=O)c1ccc(C#N)cc1F [Compound B44]	527.8	450	4901
C[C@H](NC(=O)CN1Cc2cc(F)c(F)cc2NC1=O)c1ccc(C#N)cc1F [Compound B45, N-[(1S)-1-(4-cyano-2-fluorophenyl)ethyl]-2-(6,7-difluoro-2-oxo-1,4-dihydroquinazolin-3-yl)acetamide]	45.7	20	11.5
Cc1cnncc1[C@@H](C)NC(=O)CN1Cc2c(ccc(F)c2F)NC1=O [Compound B46]	1847	580	660.1
C[C@H](NC(=O)[C@H](CC1CC1)N1Cc2c(ccc(F)c2F)NC1=O)c1ccc(F)cc1F [Compound B48]	62100	100000	12650
C[C@@H](NC(=O)[C@@H](CC1CC1)N1Cc2c(ccc(F)c2F)NC1=O)c1ccc(F)cc1F [Compound B49]	45960	6510	100000
CC(C)C[C@@H](C(=O)N[C@@H](C)c1ncc(F)cc1F)N1Cc2c(ccc(F)c2F)NC1=O [Compound B50]	42560	100000	100000
CC(C)C[C@H](C(=O)N[C@H](C)c1ncc(F)cc1F)N1Cc2c(ccc(F)c2F)NC1=O [Compound B51]	100000	49070	100000
C[C@@H](NC(=O)CN1Cc2c(ccc(F)c2F)NC1=O)c1cc(C#N)c(F)cn1 [Compound B52]	1456	420	3964
Cc1nc(C#N)cnc1[C@@H](C)NC(=O)CN1Cc2c(ccc(F)c2F)NC1=O [Compound B54]	962.8	110	579.6
Cc1cc(F)cc2c1CN(CC(=O)N[C@H](C)c1ccc(C#N)cc1F)C(=O)N2 [Compound B56]	1991	1640	1887
Cc1cc(F)cc2c1CN(CC(=O)N[C@@H](C)c1ccc(C#N)cc1F)C(=O)N2 [Compound B57]	89.9	40	13.9
Cc1cc(F)cc2c1NC(=O)N(CC(=O)N[C@H](C)c1ccc(C#N)cc1F)C2 [Compound B58]	4230	1020	6712
Cc1cc(F)cc2c1NC(=O)N(CC(=O)N[C@@H](C)c1ccc(C#N)cc1F)C2 [Compound B59, N-[(1S)-1-(4-cyano-2-fluorophenyl)ethyl]-2-(6-fluoro-8-methyl-2-oxo-1,4-dihydroquinazolin-3-yl)acetamide]	951.9	630	81.8
CC(C)C[C@@H](C(=O)N[C@@H](C)c1ccc(F)cc1F)N1Cc2c(ccc(F)c2F)NC1=O [Compound B60]	100000	800	2769
CC(C)C[C@H](C(=O)N[C@H](C)c1ccc(F)cc1F)N1Cc2c(ccc(F)c2F)NC1=O [Compound B61]	100000	100000	100000
O=C(CN1Cc2c(ccc(F)c2F)NC1=O)N[C@@H]1COCc2cc(F)cc(F)c21 [Compound B62]	41.5	40	14.3
O=C(CN1Cc2c(ccc(F)c2F)NC1=O)N[C@H]1COCc2cc(F)cc(F)c21 [Compound B63]	100000	1810	100000
